US9718812B2, “Substituted thiazole or oxazole P2X7 receptor antagonists” (Axxam S.P.A., priority 2014, dated 2017)

Each compound was assayed against P2X7 receptor (hP2X7) (Homo sapiens (Human), UniProt Q99572) (assay: Screen Quest Fluo-8 No Wash Calcium Assay (Bz-ATP-induced Ca2+ influx, FLIPR TETRA)). Settings: HEK-293 cells stably transfected with P2X7 receptor, Fluo-8 calcium, Low Divalent Cation Assay Buffer.
Type: cell-based
Procedure: Extracellular binding of Bz-ATP to P2X7 receptor opens the channel and allows Ca2+ influx into the cells. This Ca2+ entry was measured in HEK-293 cells stably transfected with P2X7 receptor using Screen Quest™ Fluo-8 No Wash Calcium Assay Kit (AAt Bioquest®, cat. 36316). Once inside the cell, the lipophilic blocking groups of Fluo-8 are cleaved by non-specific cell esterases, resulting in a negatively-charged fluorescent dye that stays inside cells. Its fluorescence increases upon binding to calcium. When HEK-293/P2X7 cells are stimulated with Bz-ATP, Ca2+ enters the cells and the fluorescence of Fluo-8 NW increases. The dye has an absorption spectrum compatible with excitation at 488 nm by argon laser sources and its emission wavelength is in the range of 515-575 nm.
HEK-293 cells stably transfected with P2X7 receptor were seeded overnight in growth medium at 10,000 to 20,000 cells/well in 384-well plate. 24 hours later, the medium was removed and the cells were pre-loaded at RT for 1 hour with 20 μL/w of Fluo-8 NW. Then 10 μL/w of test compounds and reference antagonist A438079 at 3×-concentration were injected with the […] and the kinetic response over a period of five minutes was monitored.

Chain of P2X7 receptor (hP2X7) (Q99572 whole entry): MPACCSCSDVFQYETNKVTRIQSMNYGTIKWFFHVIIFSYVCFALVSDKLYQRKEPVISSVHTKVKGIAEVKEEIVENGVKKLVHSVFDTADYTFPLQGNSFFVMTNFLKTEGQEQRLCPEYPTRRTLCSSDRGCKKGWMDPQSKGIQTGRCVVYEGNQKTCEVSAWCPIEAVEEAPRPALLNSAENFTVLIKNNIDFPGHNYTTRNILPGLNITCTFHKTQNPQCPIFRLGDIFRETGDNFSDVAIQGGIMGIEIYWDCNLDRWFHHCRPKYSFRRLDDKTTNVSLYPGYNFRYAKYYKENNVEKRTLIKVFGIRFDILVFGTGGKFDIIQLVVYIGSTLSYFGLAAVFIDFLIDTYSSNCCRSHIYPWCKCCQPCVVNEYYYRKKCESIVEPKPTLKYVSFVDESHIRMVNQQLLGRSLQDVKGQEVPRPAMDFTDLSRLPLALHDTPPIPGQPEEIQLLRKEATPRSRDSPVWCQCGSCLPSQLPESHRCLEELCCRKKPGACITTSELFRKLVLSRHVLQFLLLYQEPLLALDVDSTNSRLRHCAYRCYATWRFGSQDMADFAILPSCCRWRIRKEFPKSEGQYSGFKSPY

| Compound | IC50 |
| --- | --- |
| Cc1ncsc1C(CNC(=O)c1c(F)cccc1Cl)N1CCCC(F)(F)C1 (stereo not shown) [Compound 64, 2-chloro-N-[2-(3,3-difluoropiperidin-1-yl)-2-(4-methyl-1,3-thiazol-5-yl)ethyl]-6-fluorobenzamide] | 253 nM |
| Cc1ncsc1C(CNC(=O)c1cc(-c2ncc(F)cn2)ccc1Cl)N1CC(F)(F)C1 (stereo not shown) [Compound 65, 2-chloro-N-[2-(3,3-difluoroazetidin-1-yl)-2-(4-methyl-1,3-thiazol-5-yl)ethyl]-5-(5-fluoropyrimidin-2-yl)benzamide] | 39 nM |
| COc1ccc(-c2ncc(F)cn2)cc1C(=O)NCC(c1scnc1C)N1CCC(F)(F)CC1 (stereo not shown) [Compound 71, N-[2-(4,4-difluoropiperidin-1-yl)-2-(4-methyl-1,3-thiazol-5-yl)ethyl]-5-(5-fluoropyrimidin-2-yl)-2-methoxybenzamide] | 355 nM |
| Cc1ncsc1C(CNC(=O)c1cc(-c2ncc(F)cn2)ccc1Cl)N1CCC(Oc2ccccc2)CC1 (stereo not shown) [Compound 73, 2-chloro-5-(5-fluoropyrimidin-2-yl)-N-[2-(4-methyl-1,3-thiazol-5-yl)-2-(4-phenoxypiperidin-1-yl)ethyl]benzamide] | 238 nM |
| Cc1ncc(C(CNC(=O)c2cc(-c3cnccn3)ccc2Cl)N2CCC(F)(F)CC2)s1 (stereo not shown) [Compound 78, 2-chloro-N-[2-(4,4-difluoropiperidin-1-yl)-2-(2-methyl-1,3-thiazol-5-yl)ethyl]-5-(pyrazin-2-yl)benzamide] | 133 nM |
| Cc1cccc(-c2ccc(Cl)c(C(=O)NCC(c3cnc(C)s3)N3CCC(F)(F)CC3)c2)n1 (stereo not shown) [Compound 79, 2-chloro-N-[2-(4,4-difluoropiperidin-1-yl)-2-(2-methyl-1,3-thiazol-5-yl)ethyl]-5-(6-methylpyridin-2-yl)benzamide] | 206 nM |
| Cc1ncc(C(CNC(=O)c2cc(-c3ncc(F)cn3)ccc2F)N2CCC(F)(F)CC2)s1 (stereo not shown) [Compound 80, N-[2-(4,4-difluoropiperidin-1-yl)-2-(2-methyl-1,3-thiazol-5-yl)ethyl]-2-fluoro-5-(5-fluoropyrimidin-2-yl)benzamide] | 292 nM |
| O=C(NCC(c1cnc(C(F)(F)F)s1)N1CCC(F)(F)CC1)c1cc(-c2ncc(F)cn2)ccc1Cl (stereo not shown) [Compound 82] | 737 nM |
| O=C(NCC(c1cnc(C2CC2)s1)N1CCC(F)(F)CC1)c1cc(-c2ncc(F)cn2)ccc1F (stereo not shown) [Compound 86, N-[2-(2-cyclopropyl-1,3-thiazol-5-yl)-2-(4,4-difluoropiperidin-1-yl)ethyl]-2-fluoro-5-(5-fluoropyrimidin-2-yl)benzamide] | 495 nM |
| Cc1ncsc1C(CNC(=O)c1c(F)cccc1Cl)N1CCOC(c2ccccc2C(F)(F)F)C1 (stereo not shown) [Compound 90, 2-chloro-6-fluoro-N-[2-(4-methyl-1,3-thiazol-5-yl)-2-{2-[2-(trifluoromethyl)phenyl]morpholin-4-yl}ethyl]benzamide] | 412 nM |
| Cc1ncsc1C(CNC(=O)c1c(F)cccc1Cl)N1CCOC(c2cnn(C)c2)C1 (stereo not shown) [Compound 92, 2-chloro-6-fluoro-N-[2-(4-methyl-1,3-thiazol-5-yl)-2-[2-(1-methyl-1H-pyrazol-4-yl)morpholin-4-yl]ethyl]benzamide] | 171 nM |
| Cc1ncsc1C(CNC(=O)c1cc(-c2ncc(F)cn2)ccc1F)N1CCOC2(CCC2)C1 (stereo not shown) [Compound 94, 2-fluoro-5-(5-fluoropyrimidin-2-yl)-N-[2-(4-methyl-1,3-thiazol-5-yl)-2-{5-oxa-8-azaspiro[3.5]nonan-8-yl}ethyl]benzamide] | 321 nM |
| Cc1ncsc1C(CNC(=O)c1c(F)cccc1Cl)N1CCOC2(CCC2)C1 (stereo not shown) [Compound 96, 2-chloro-6-fluoro-N-[2-(4-methyl-1,3-thiazol-5-yl)-2-{5-oxa-8-azaspiro[3.5]nonan-8-yl}ethyl]benzamide] | 989 nM |

Other lines, results leading:

| IC50 | Compound |
| --- | --- |
| 139 nM | Cc1ncsc1C(CNC(=O)c1cc(-c2ncc(F)cn2)ccc1Cl)N1CCOC(c2cnn(C)c2)C1 (stereo not shown) [Compound 97] |
| 142 nM | Cc1ncsc1C(CNC(=O)c1cc(-c2ncc(F)cn2)ccc1F)N1CCOC(c2cnn(C)c2)C1 (stereo not shown) [Compound 98] |
| 186 nM | Cc1ncsc1C(CNC(=O)c1cc(-c2ncc(F)cn2)ccc1Cl)N1CCC(F)(F)CC1C (stereo not shown) [Compound 103, 2-chloro-N-[2-(4,4-difluoro-2-methylpiperidin-1-yl)-2-(4-methyl-1,3-thiazol-5-yl)ethyl]-5-(5-fluoropyrimidin-2-yl)benzamide] |
| 1870 nM | Cc1ncsc1C(CNC(=O)c1c(F)cccc1Cl)N1CCC(F)(F)CC1C (stereo not shown) [Compound 104, 2-chloro-N-[2-(4,4-difluoro-2-methylpiperidin-1-yl)-2-(4-methyl-1,3-thiazol-5-yl)ethyl]-6-fluorobenzamide] |
| 743 nM | Cc1ncc(C(CNC(=O)c2cc(-c3ncc(F)cn3)ccc2Cl)N2CCC(F)(F)CC2C)s1 (stereo not shown) [Compound 113, 2-chloro-N-[2-(4,4-difluoro-2-methylpiperidin-1-yl)-2-(2-methyl-1,3-thiazol-5-yl)ethyl]-5-(5-fluoropyrimidin-2-yl)] |
| 367 nM | Cc1ncsc1C(CNC(=O)c1ccc(N2CCCS2(=O)=O)cc1Cl)N1CCC(F)(F)CC1 (stereo not shown) [Compound 114] |
| 429 nM | O=C(NCC(c1cnc(C2CCC(F)(F)CC2)s1)N1CCC(F)(F)CC1)c1c(F)cccc1Cl (stereo not shown) [Compound 117, 2-chloro-N-{2-[2-(4,4-difluorocyclohexyl)-1,3-thiazol-5-yl]-2-(4,4-difluoropiperidin-1-yl)ethyl}-6-fluorobenzamide] |
| 243 nM | CC(C)(C)c1ncc(C(CNC(=O)c2c(F)cccc2Cl)N2CCC(F)(F)CC2)s1 (stereo not shown) [Compound 118, N-[2-(2-tert-butyl-1,3-thiazol-5-yl)-2-(4,4-difluoropiperidin-1-yl)ethyl]-2-chloro-6-fluoro-benzamide] |
| 319 nM | O=C(NCC(c1scnc1C1CC1)N1CCC(F)(F)CC1)c1cc(-c2ncc(F)cn2)ccc1Cl (stereo not shown) [Compound 119] |
| 6910 nM | Cc1ncsc1C(CNC(=O)c1cc2c(cc1F)NC(=O)CC2)N1CCC(F)(F)CC1 (stereo not shown) [Compound 120, N-[2-(4,4-difluoropiperidin-1-yl)-2-(4-methyl-1,3-thiazol-5-yl)ethyl]-7-fluoro-2-oxo-1,2,3,4-tetrahydroquinoline-6-] |
| 531 nM | O=C(NCC(c1scnc1C1CC1)N1CCC(F)(F)CC1)c1cccc2ncccc12 (stereo not shown) [Compound 121, N-[2-(4-cyclopropyl-1,3-thiazol-5-yl)-2-(4,4-difluoropiperidin-1-yl)ethyl]quinoline-5-carboxamide] |
| 1060 nM | CC(C)(C)c1ncc(C(CNC(=O)c2cc(-c3ncc(F)cn3)ccc2Cl)N2CCC(F)(F)CC2)s1 (stereo not shown) [Compound 122, N-[2-(2-tert-butyl-1,3-thiazol-5-yl)-2-(4,4-difluoropiperidin-1-yl)ethyl]-2-chloro-5-(5-fluoropyrimidin-2-yl)benzamide] |
| 279 nM | O=C(NCC(c1scnc1C1CC1)N1CCC(F)(F)CC1)c1c(F)cccc1Cl (stereo not shown) [Compound 123, 2-chloro-N-[2-(4-cyclopropyl-1,3-thiazol-5-yl)-2-(4,4-difluoropiperidin-1-yl)ethyl]-6-fluorobenzamide] |
| 3950 nM | CC(C)(C)c1ncc(C(CNC(=O)c2cccc3ncccc23)N2CCC(F)(F)CC2)s1 (stereo not shown) [Compound 124, N-[2-(2-tert-butyl-1,3-thiazol-5-yl)-2-(4,4-difluoropiperidin-1-yl)ethyl]quinoline-5-carboxamide] |
| 336 nM | O=C(NCC(c1cnc(C2CCC(F)(F)CC2)s1)N1CCOCC1)c1cc(-c2ncc(F)cn2)ccc1Cl (stereo not shown) [Compound 125, 2-chloro-N-{2-[2-(4,4-difluorocyclohexyl)-1,3-thiazol-5-yl]-2-(morpholin-4-yl)ethyl}-5-(5-fluoropyrimidin-2-yl)benzamide] |
| 1430 nM | O=C(NCC(c1cnc(C2CCC(F)(F)CC2)s1)N1CCC(F)(F)CC1)c1cc(-c2ncc(F)cn2)ccc1Cl (stereo not shown) [Compound 126] |

These compounds were tested against P2X7 receptor (Homo sapiens (Human), UniProt Q99572) (assay: YO-PRO-1 Uptake Assay (large pore form, Bz-ATP stimulated)). Settings: HEK-293 cells stably transfected with P2X7 receptor; Bz-ATP EC80 (30 μM); 5 μM YO-PRO-1.
Chain of P2X7 receptor (Q99572 whole entry): as above
Type: cell-based
Text: YO-PRO®-1 is a fluorescent DNA-binding dye with a MW of 374 Da (Molecular Probes®, cat. Y3603). This method is based upon the presumed ability of YO-PRO®-1 to enter through the dilated or “large pore form” of P2X7 receptor and to bind to intracellular DNA whereupon it increases many fold its fluorescence intensity. The dye has an absorption spectrum compatible with excitation at 488 nm by argon laser sources and its emission wavelength is in the range of 515-575 nm. The aim of this assay was to validate the interaction of antagonists with P2X7 receptor using an alternative readout to Ca^2+-sensitive fluorescent dyes.
HEK-293 cells stably transfected with P2X7 receptor were seeded overnight in growth medium at 20,000 cells/well in 384-well plate. 24 hours later, the medium was removed, the cells were washed with Low Divalent Cation Assay Buffer (0.3 mM Ca2+ and 0 mM Mg2+) and then pre-loaded with 20 μL/w of 5 μM YO-PRO®-1 dye. […] fluorescence measurement immediately started. Then, 10 μL/w of test compounds and reference antagonist A438079 at 3×-concentration were injected with the […] and the kinetic response over a period of five minutes was monitored. A second injection of 10 μL/w of 3× Bz-ATP EC80 (30 μM) was performed with the […] and the signal of the emitted fluorescence was recorded for additional 60 minutes. All the experiment was carried out with a Low Divalent Cation Assay Buffer (0.3 mM Ca^2+ and 0 mM Mg^2+).
The effect of the test compounds was measured as percent inhibition vs the reference antagonist and IC50 values were calculated accordingly.

| Compound | IC50 |
| --- | --- |
| O=C(NCC(c1cnco1)N1CCC(F)(F)CC1)c1c(F)cccc1Cl (stereo not shown) [Compound 45, 2-chloro-N-[2-(4,4-difluoropiperidin-1-yl)-2-(1,3-oxazol-5-yl)ethyl]-6-fluorobenzamide] | 225 nM |
| Cc1ncoc1C(CNC(=O)c1c(F)cccc1Cl)N1CCC(F)(F)CC1 (stereo not shown) [Compound 52, 2-chloro-N-[2-(4,4-difluoropiperidin-1-yl)-2-(4-methyl-1,3-oxazol-5-yl)ethyl]-6-fluorobenzamide] | 2070 nM |
